{"source": "paper PMC7156724", "about": "“Potent BRD4 inhibitor suppresses cancer cell-macrophage interaction” (Nature Communications, 2020)", "key": {"[1]": {"assay": "Metabolic stability assay, mouse liver microsomes", "conditions": "for Remaining in mouse liver microsomes (Sup Fig.6a): in % (unit assumed)", "method": "7. Metabolic stability assay. The metabolic profile of NHWD-870 was determined using mouse, rat, dog, monkey, and human liver microsomes using the protocols […]\nNo. Compound ID Exat Mass Stock Conc.\n1) 100 mM potassium phosphate buffer, PH7.4; 2) 10mM MgCI2\n1) Intermediate solution: Dilute 5 μL of compound or control from stock solution (10 mM) with 45 uL DMSO,then mixed with 450 μL 1:1 Methanol/Water (Conc.: 10 0 […]\n2) Working solution: Dilute 50 μL from intermediate solution with 450 μL 100 mM potassium phosphate buffer (Conc.: 10 μM, 4.5%MeOH)\n(3) NADPH regenerating system (final Isocitric dehydrogenase conc.= 1 unit/mL at […]\n1) β-Nicotinamide adenine dinucleotide phosphate, Vendor: sigma Cat. No. N0505\n2) Isocitric acid, Vendor: Sigma Cat. No. I1252\n3) Isocitric dehydrogenase, Vendor: sigma Cat. No. I2002\n(4) Liver microsome solution preparation (final concentration o f 0.5 mg protein/mL) […]\nCold ACN including 100 ng/mL Tolbutamide and 100 ng/mL Labetalol as internal […]\n1) Add 10 μL compound or control working solution/well to all plates (T0, T5, T10, T20, T30, T60, NCF60) except matrix blank.\n2) Dispense 680 μL/well microsome solution to 96-well plate as reserv oir according to […]\nplate map. Then add 80 μL/well to every plate by Apricot, incubate the mixture of microsome solution and compound at 37℃ for about 10 min.\n3) Add 10 μL 100 mM potassium phosphate buffer/well to NCF60, incubate at 37℃, […]\n4) After pre-warming, dispense 90 μL/well NADPH regenerating system to 96-well plate as reservoir according to the plate map. Then add 10 μL/well to every plate by Apricot to start reaction.\n5) Incubate at 37℃, start timer 2.\n6) Add 300 (μL/well) stop solution (cold in 4℃, including 100 ng/mL Tolbutamide and 100 ng/mL Labetalol) to terminate the reaction.\n7) The sampling plates are shaked for approx 10 min.\n8) Samples are centrifuged at 4000 rpm for 20 min under 4℃.\n9) While centrifuging, load 8×new 96-well plate with 300 μL HPLC water, then transfer 100 μL supernatant, mixed for LC/MS/MS.\nUse equation of first order kinetics to calculate t1/2 and Clin t(mic): […]\nEquation of first order kinetics: […]"}, "[2]": {"molecular_target": "T1, human Ether-à-go-go related gene (hERG) channel (Homo sapiens, UniProt Q12809)", "T1 construct": "host or cells: HEK293, stably transfected, expression induced with doxycycline", "T1 sequence (Q12809 whole entry)": "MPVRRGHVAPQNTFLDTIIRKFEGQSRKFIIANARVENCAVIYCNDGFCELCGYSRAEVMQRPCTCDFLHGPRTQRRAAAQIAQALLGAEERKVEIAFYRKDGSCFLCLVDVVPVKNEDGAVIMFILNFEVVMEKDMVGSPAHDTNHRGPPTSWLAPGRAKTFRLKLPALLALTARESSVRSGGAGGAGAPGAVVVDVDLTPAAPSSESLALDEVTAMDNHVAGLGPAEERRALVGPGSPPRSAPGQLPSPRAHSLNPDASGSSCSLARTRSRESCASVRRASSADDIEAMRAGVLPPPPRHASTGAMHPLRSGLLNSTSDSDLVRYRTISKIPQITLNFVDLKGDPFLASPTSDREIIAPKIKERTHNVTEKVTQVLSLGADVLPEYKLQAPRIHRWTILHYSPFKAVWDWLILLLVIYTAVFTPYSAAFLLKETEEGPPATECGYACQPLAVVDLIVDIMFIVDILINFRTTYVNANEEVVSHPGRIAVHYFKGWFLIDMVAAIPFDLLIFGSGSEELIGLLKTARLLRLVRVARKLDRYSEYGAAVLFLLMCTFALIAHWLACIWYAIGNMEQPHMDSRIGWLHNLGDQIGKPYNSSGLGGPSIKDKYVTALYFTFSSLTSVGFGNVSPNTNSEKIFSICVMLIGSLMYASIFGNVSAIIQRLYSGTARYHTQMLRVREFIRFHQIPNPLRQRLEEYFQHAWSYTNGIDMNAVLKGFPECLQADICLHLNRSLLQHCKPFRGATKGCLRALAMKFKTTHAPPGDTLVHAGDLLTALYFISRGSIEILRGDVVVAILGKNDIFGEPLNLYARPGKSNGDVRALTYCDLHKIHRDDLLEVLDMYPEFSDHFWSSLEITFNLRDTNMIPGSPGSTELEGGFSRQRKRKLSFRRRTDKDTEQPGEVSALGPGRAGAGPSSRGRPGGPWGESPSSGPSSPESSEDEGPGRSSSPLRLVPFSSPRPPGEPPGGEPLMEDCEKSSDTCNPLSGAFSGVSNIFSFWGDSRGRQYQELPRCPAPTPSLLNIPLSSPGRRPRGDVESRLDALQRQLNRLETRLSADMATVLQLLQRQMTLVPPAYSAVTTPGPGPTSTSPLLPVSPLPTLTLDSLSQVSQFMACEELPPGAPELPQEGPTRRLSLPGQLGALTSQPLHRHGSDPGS", "assay": "hERG channel assay, manual patch-clamp", "type": "cell-based", "conditions": "HEK293 cells stably transfected with hERG, read-out: IC50, inhibition of hERG channel", "method": "calculated concentration on the dialysate side of the membrane; T0 = To t a l compound concentration as determined before dialysis. Good plasma stability should have a value of not less than 80% bound, and the recovery rate should be […]\n9. In vivo pharmacokinetics study. Mouse and SD rat models were used to evaluate pharmacokinetic property of NHWD-870. NHWD-870 was administrated by either intravenous injection (IV, 1.75 mg/kg for mouse and 1 mg/kg for rat) or oral gavage (PO, 5 mg/kg) into mice or rats. Concentration of drugs in plasma, lung and tumor tissues were measured for the indicated time.\n10. hERG channel assay. The potential inhibitory effect of NHWD-870 on human Ether-à-go-go related gene (hERG) channel was evaluated by manual patch-clamp system using the protocols described below. HEK293 cell line stably"}, "[3]": {"test_system": "monocytes in peripheral blood", "assay": "Complete blood cell counting of monocytes in B16F10 tumor bearing mice", "type": "in vivo, mouse", "conditions": "B16F10 melanoma tumor bearing mice, 11 days", "method": "Reviewer Fig 3. […] B16F10 melanoma […]\ntumor bearing mice (n=5) treated with the indicated compounds for 11 days. Monocytes in blood of DMSO and NHWD-870-treated mice were analyzed by complete blood cell counting (CBC). […]\ntumor cells blocks mCSF expression and blocks proliferation of macrophages ex vivo. It is not possible from these studies to conclude if NHWD-870 mediated inhibition of mCSF expression is responsible for […]\nIn part, this is because the culture conditions for this unusual assay have not been described in the methods or text sections. What are the components of the culture medium? Does it include serum, mCSF and other growth factors? A more direct method of testing the effect of tumor cell expressed mCSF on TAMs ex vivo is to incubate TAMs in defined tumor cell conditioned media from untreated and treated tumor cells (the media placed on the macrophages should not include the drug, however). However, there is one other key weakness to these studies that […]\nIt is thus not clear if absence of mCSF or products from dying cells suppress macrophage growth as colonies ex vivo. […]\nexperiments, which has been added and addressed in response to comment #4. We agree that the experiments can be done with conditioned media. […]\nShown are schematics of the experiments (m) and quantification of TAMs (n, o). […]"}, "[4]": {"conditions": "mouse, liver microsomes, pH 7.4"}}, "note": "pIC50: −log10 of the molar value."}
{"smiles": "Cc1nnn(C)c1-c1cnc2c3c4cnn(C)c4ccc3n([C@H](c3ccccc3)C3CCOCC3)c2c1", "note": "[NHWD-870]", "values": [{"measurement": "Remaining (T=60min)", "setting": "[1]; mouse liver microsomes", "value": 36.2, "unit": "%"}, {"measurement": "Remaining (*NCF=60min)", "setting": "[1]; mouse liver microsomes, no cofactor", "value": 70.1, "unit": "%"}, {"measurement": "CLint scaled at 1 µM", "setting": "[1]; [4]", "value": 8.35, "unit": "L/h/kg"}, {"measurement": "half-life at 1 µM", "setting": "[1]; [4]", "value": 39.4, "unit": "min"}, {"measurement": "microsomal CLint at 1 µM", "setting": "[1]; mouse, microsomes, pH 7.4", "value": 35.2, "unit": "µL/min/mg"}, {"measurement": "Remaining in mouse liver microsomes (Sup Fig.6a)", "setting": "[1]; time 0", "value": 100}, {"measurement": "Remaining in mouse liver microsomes (Sup Fig.6a)", "setting": "[1]; time 5", "value": 95.208}, {"measurement": "Remaining in mouse liver microsomes (Sup Fig.6a)", "setting": "[1]; time 10", "value": 82.243}, {"measurement": "Remaining in mouse liver microsomes (Sup Fig.6a)", "setting": "[1]; time 20", "value": 62.59}, {"measurement": "Remaining in mouse liver microsomes (Sup Fig.6a)", "setting": "[1]; time 30", "value": 51.73}, {"measurement": "Remaining in mouse liver microsomes (Sup Fig.6a)", "setting": "[1]; time 60", "value": 36.198}, {"measurement": "pIC50", "setting": "[2]", "value": 5.27}, {"measurement": "effects on monocytes in peripheral blood", "setting": "[3]", "value": "relatively mild effects"}]}
